Measured values published in publication PMC6317155, “Identification of Small Peptides that Inhibit NADPH Oxidase (Nox2) Activation” (Antioxidants, 2018).

Key:
[1] = biological target: T1, aiPLA2 activity of recombinant human Prdx6 (Homo sapiens, UniProt P30041); test: aiPLA2 (PLA2) activity of recombinant human Prdx6 in vitro, 3H-DPPC liposome substrate; type: biochemical; settings: for Activity (aiPLA2 of recombinant hPrdx6), human-derived peptides: deletions from 16-aa human-derived SP-A peptide, no-peptide control 92.0; for Activity (aiPLA2 of recombinant hPrdx6), human-derived peptides / Activity (aiPLA2 of recombinant hPrdx6), deletion from C-term / Activity (aiPLA2 of recombinant hPrdx6), deletion from N-term: one assay done in duplicate; for Activity (aiPLA2 of recombinant hPrdx6), deletion from C-term: peptides deleted from C-terminus of 16-aa rat-derived SP-A peptide, and scrambled peptide; for Activity (aiPLA2 of recombinant hPrdx6), deletion from C-term / Activity (aiPLA2 of recombinant hPrdx6), deletion from N-term: no-peptide control 94.8; for Activity (aiPLA2 of recombinant hPrdx6), deletion from N-term: peptides deleted from N-terminus of 16-aa rat-derived SP-A peptide, 3H-DPPC liposomes, 60 min
T1 sequence (P30041 1-224): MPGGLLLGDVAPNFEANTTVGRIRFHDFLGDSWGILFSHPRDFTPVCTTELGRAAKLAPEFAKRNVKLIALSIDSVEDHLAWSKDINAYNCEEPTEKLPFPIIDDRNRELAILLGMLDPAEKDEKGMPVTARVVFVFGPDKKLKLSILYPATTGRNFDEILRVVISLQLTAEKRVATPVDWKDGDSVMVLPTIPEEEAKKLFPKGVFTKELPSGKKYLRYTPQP
Protocol: (§1) The PLA2 activity of Prdx6 was measured as described previously. The substrate was dipalmitoylphosphatidylcholine (DPPC) with ^3H-9,10-palmitate in the sn-2 position of DPPC incorporated into lung surfactant-like liposomes as described above; substrate was incubated with enzyme for 60 min and activity was calculated from the liberation of ^3H-palmitate as measured by scintillation counting.
The effect of the PIP peptides on the aiPLA2 activity of human recombinant Prdx6 was determined by in vitro assay; the effective concentration of inhibitor was corrected for purity of the PIP preparation. Saturating concentrations of all three peptides (PIP-1, PIP-2, PIP-3) inhibited aiPLA2 activity by ~70% (Figure 2). The basis for the remaining 30% of activity that was not inhibited is unclear.

[2] = biological target: T2, aiPLA2 activity of lung homogenate (Mus musculus, UniProt O08709); test: aiPLA2 activity of homogenate of isolated mouse lungs perfused with PIP-2; settings: inferred from lack of effect without liposomal carrier in lungs
T2 construct: from tissue; host or cells: mouse (C57Bl/6) lung homogenate
T2 sequence (O08709 1-224): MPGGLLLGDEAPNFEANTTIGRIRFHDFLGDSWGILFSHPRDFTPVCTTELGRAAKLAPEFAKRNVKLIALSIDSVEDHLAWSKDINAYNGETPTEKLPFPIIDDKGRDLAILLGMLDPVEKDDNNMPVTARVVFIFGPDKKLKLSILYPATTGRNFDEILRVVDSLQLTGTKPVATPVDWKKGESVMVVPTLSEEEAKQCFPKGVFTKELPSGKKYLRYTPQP
Protocol: as §1
To confirm the requirement for liposomes as a delivery vehicle, lungs were perfused for 15 min with PIP-2 incorporated or not into liposomes, then perfused with fresh medium to clear extracellular PIP-2, and then homogenized and assayed for aiPLA2 activity. PIP-2 administered without liposomes had no effect on aiPLA2 activity of the lung homogenate while PIP-2 in liposomes inhibited activity by ~80% (Table 5).

[3] = biological target: T1, aiPLA2 activity of recombinant human Prdx6; test: Chemical stability of dry powder on laboratory shelf, read out as inhibition of aiPLA2 activity; type: physicochemical; settings: room temperature, nine months, data not shown
Text: These peptides have a molecular mass of 1156–1178 with a predicted isoelectric point in the slightly basic range. Each of the three peptides contains four hydrophobic amino acid residues, with two of those on the same surface, and one negatively charged hydrophilic aa. The PIP-2 sequence has three while PIPs-1 and -3 have only two positively charged aa. PIP-1 is slightly more hydrophobic than the other two peptides but, in our experience, all three peptides readily dissolve in aqueous solution. […] No antigenic determinants were identified in these peptides as determined by the free on-line program provided by the Immunomedicine Group of the Universidad Complutense (Madrid, Spain). The chemical stability of PIP-2 was tested by placing the dry powder on the laboratory shelf at room temperature; its inhibition of the aiPLA2 activity of recombinant human Prdx6 was unchanged when measured after nine months of shelf storage indicating good stability of the peptide as a dry powder (data not shown); stability of the other peptides was not tested.

[4] = system: lung PLA2 enzymes that are active at pH 7; test: PLA2 activity of lung homogenate at pH 7 with Ca2+ (other lung PLA2 enzymes), PIP-2 added to the assay; type: biochemical, mouse
Protocol: as §1
(§2) Lung cells, like those of other organs, have multiple PLA2 enzymes. We evaluated the specificity of PIP-2 for inhibition of Prdx6 by measuring aiPLA2 activity in the lung homogenate of wild type and D140A-Prdx6 mutant mice. […] Measurement of PLA2 activity at pH 4 in the absence of Ca^2+ is relatively specific for the PLA2 activity of Prdx6 (aiPLA2). This activity was inhibited by 91% following addition of PIP-2 to the assay of the lung homogenate (Table 6). Although Prdx6 has relatively little PLA2 activity when measured at pH 7, other lung PLA2 enzymes, some of which are Ca^2+-dependent for activity, show activity at neutral pH; this activity was not affected by mutation of D140 in Prdx6 (Table 6). Unlike the effect of PIP-2 on aiPLA2 activity at pH 4, the addition of PIP-2 had no effect on activity of the lung PLA2 enzymes that are active at pH 7. Thus, aiPLA2 appears to be the only PLA2 enzyme, at least in the lung, that is inhibited by PIP-2.

[5] = biological target: T3, PLA2 activity of Prdx6 (aiPLA2) (Mus musculus, UniProt O08709); test: PLA2 activity of lung homogenate at pH 4 without Ca2+ (aiPLA2), PIP-2 added to the assay; type: biochemical; settings: wild type mouse lung homogenate, no Ca2+; no inhibitor 8.7 ± 0.16; mean ± range, n = 2
T3 construct: from tissue; host or cells: mouse (C57Bl/6) lung homogenate
T3 sequence (O08709 2-224): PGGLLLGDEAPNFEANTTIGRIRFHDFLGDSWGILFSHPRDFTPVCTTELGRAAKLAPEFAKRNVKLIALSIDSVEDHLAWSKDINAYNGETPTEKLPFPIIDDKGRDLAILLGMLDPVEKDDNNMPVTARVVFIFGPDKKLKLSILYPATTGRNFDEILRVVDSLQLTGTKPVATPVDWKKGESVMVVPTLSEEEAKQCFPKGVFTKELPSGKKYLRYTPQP
Protocol: as §1, §2

[6] = biological target: T4, PLA2 activity of Prdx6 (aiPLA2) (Mus musculus, UniProt O08709, D140A); test: as above; type: biochemical; settings: D140A-Prdx6 knock-in mouse lung homogenate, no Ca2+; no inhibitor 0.2 ± 0.03; mean ± range, n = 2
T4 construct: from tissue; host or cells: mouse (C57Bl/6) lung homogenate
T4 sequence (O08709 2-224 D140A): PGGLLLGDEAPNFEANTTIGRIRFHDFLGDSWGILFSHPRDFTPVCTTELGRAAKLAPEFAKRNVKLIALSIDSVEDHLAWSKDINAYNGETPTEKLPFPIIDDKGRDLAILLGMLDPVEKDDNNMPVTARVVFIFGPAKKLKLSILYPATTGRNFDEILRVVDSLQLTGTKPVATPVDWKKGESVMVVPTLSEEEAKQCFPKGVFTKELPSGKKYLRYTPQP
Protocol: as §1, §2

lung aiPLA2 activity = biological target: T5, lung aiPLA2 activity (Mus musculus, UniProt O08709); test: Lung aiPLA2 activity after a single IT or IV dose in mice in vivo; settings: single dose in liposomes, estimated
T5 construct: from tissue; host or cells: mouse (C57Bl/6) lung homogenate
T5 sequence (O08709 1-224): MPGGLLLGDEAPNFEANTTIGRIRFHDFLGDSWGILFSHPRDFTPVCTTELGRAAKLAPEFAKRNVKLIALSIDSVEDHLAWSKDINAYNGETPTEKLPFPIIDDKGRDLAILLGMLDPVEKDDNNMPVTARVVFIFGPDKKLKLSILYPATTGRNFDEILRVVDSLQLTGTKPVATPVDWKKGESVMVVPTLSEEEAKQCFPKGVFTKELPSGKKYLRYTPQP
Protocol: For administration to mice, peptides were incorporated into liposomes that were prepared as previously described. Liposome composition was dipalmitoylphosphatidylcholine (DPPC): egg phosphatidylcholine: phosphatidylglycerol: cholesterol in the molar ratio 50:25:10:15. To measure the in vivo effect of the peptides, mice were injected with PIP-2 by either the intratracheal (IT) or the intravenous (IV) route and were sacrificed at intervals; lungs were removed from mice and homogenized for measurement of aiPLA2 activity.
as §1
To determine the effect and duration of a single dose of PIP-2 on aiPLA2 activity of mouse lungs in vivo, mice were injected with PIP-2 in liposomes by either the intratracheal (IT) or the intravenous (IV) route; individual lungs were removed at intervals, homogenized, and assayed for aiPLA2 activity. […]
Figure 4 Persistence and stability of PIP-2 in vivo. […] Lungs were harvested at intervals between 4 and 72 h after the PIP-2 administration, homogenized, and analyzed for aiPLA2 activity. […]

DEELQATLHDFRHQIL [16 aa human SP-A-derived peptide]
Activity (aiPLA2 of recombinant hPrdx6), human-derived peptides [1]: 45.0 nmol/min/mg Prot.

DEELQTEL [8-aa C-terminal deletion of rat 16-aa peptide]
Activity (aiPLA2 of recombinant hPrdx6), deletion from C-term [1]: 93.6 nmol/min/mg Prot.

DEELQTELYEIKHQ [14-aa C-terminal deletion of rat 16-aa peptide]
Activity (aiPLA2 of recombinant hPrdx6), deletion from C-term [1]: 102 nmol/min/mg Prot.

DEELQTELYEIKHQIL
Activity (aiPLA2 of recombinant hPrdx6), deletion from C-term [1]: 32.0 nmol/min/mg Prot.
Activity (aiPLA2 of recombinant hPrdx6), deletion from N-term [1]: 32.0 nmol/min/mg Prot.

ELQTELYEIKHQIL [14-aa N-terminal deletion of rat 16-aa peptide]
Activity (aiPLA2 of recombinant hPrdx6), deletion from N-term [1]: 33.2 nmol/min/mg Prot.

ELYEIKHQI [9-aa peptide lacking the C-terminal Leu]
Activity (aiPLA2 of recombinant hPrdx6), deletion from C-term [1]: 89.6 nmol/min/mg Prot.

ELYEIKHQIL [10-aa N-terminal deletion of rat 16-aa peptide]
Activity (aiPLA2 of recombinant hPrdx6), deletion from N-term [1]: 28.6 nmol/min/mg Prot.

LELDEEITEYQKQLHI [Scrambled peptide, scrambled 16-aa control peptide, reference compound]
Activity (aiPLA2 of recombinant hPrdx6), deletion from C-term [1]: 93.5 nmol/min/mg Prot.

LHDFRHQIL [PIP-2]
Ability to cross the cell membrane [2]: not able to cross the cell membrane
Chemical stability: inhibition of aiPLA2 activity after shelf storage [3]: unchanged
PLA2 activity, pH 7 + Ca2+, D140A-Prdx6 ([4]; D140A-Prdx6 knock-in mouse lung homogenate, no inhibitor 8.3 ± 0.26, mean ± range, n = 2): 8.5 ± 0.10 nmol/min/mg Prot.
Effect on activity of lung PLA2 enzymes active at pH 7 ([4]; PIP-2 added to assay of lung homogenate): no effect
PLA2 activity, pH 4, WT [5]: 1.6 ± 0.10 nmol/min/mg Prot.
PLA2 activity, pH 4, D140A-Prdx6 [6]: 0.2 ± 0.06 nmol/min/mg Prot.
Half-time for recovery of lung aiPLA2 activity (decrease of in vivo inhibition) (lung aiPLA2 activity): ~ 50 h
Activity (aiPLA2 of recombinant hPrdx6), human-derived peptides [1]: 29.9 nmol/min/mg Prot.
Inhibition of aiPLA2 activity at saturating concentrations of peptide ([1]; recombinant human Prdx6, Figure 2, mean + SEM, n = 3): ~ 70%
Concentration of peptide for inhibition of aiPLA2 activity by 50% ([1]; recombinant human Prdx6, concentration corrected for purity of the PIP preparation, Figure 2, n = 3): ~ 6.6 µg/mg Prdx6
